Reference: patent US10538522B2, “Brassinosteroid mimetics” (The Regents of the University of California, priority 2015, dated 2020)

How the values were obtained:
bri1-6 mutant seedling = assay: Growth of mutant seedling defective in brassinosteroid receptor BRI1 (FIG. 4); type: in vivo
Arabidopsis seedlings = assay: Hypocotyl length / plant height of seedlings treated with brassinosteroid mimetic (FIG. 1, FIG. 2); type: in vivo; conditions: versus untreated plants
Description: (A) Arabidopsis seedlings were grown for 7 days in light in the presence of increasing concentrations of a brassinosteroid mimetic of the disclosure. (B) a photo of seedlings grown at 0 and 20 μM of brassinosteroid mimetic.
The brassinosteroid mimetics of the disclosure were tested and shown to block ethylene response by hyperactivating brassinosteroid signaling. The application of any one of the brassinosteroid mimetics of the disclosure, which are all closely related, results in massive increases in plant size. […] Additionally, reduction of internal concentrations of brassinosteroids by inhibition of brassinosteroid biosynthesis reduces the effects of the mimetic on growth. In FIG. 1, one can see the promotive effects of F1874-0108 (inset), a brassinosteroid mimetic of the disclosure, on plant height, with chemical treated plants being almost 100% taller than untreated plants. Hyperactivation of brassinosteroid signaling represents an effective means to increase plant biomass and increase the capability of plants with regard to disease resistance and other brassinosteroid regulated phenomena.

[1] = system: seedlings treated with an inhibitor of BR synthesis (brassinazole); assay: Hypocotyl length of seedlings with brassinosteroid synthesis inhibited by brassinazole (FIG. 1, FIG. 3); type: in vivo, Arabidopsis
Description: Seedlings were treated with an inhibitor of BR synthesis (brassinazole; (BZ)). […] This is not consistent with what is seen for Bikinin, which is a constitutive activator of BR signaling and would be independent of BR synthesis (i.e. treatment with BZ would not result in inhibition of hypocotyl length in the presence of BZ).
In FIG. 1, brassinosteroid production was limited by addition of brassinazole (BZ, which is a chemical inhibitor of brassinosteroid biosynthesis). […] In stark contrast, addition of brassinolide plus mimetic severely curtails this burst in growth because mimetic prevents the full inhibition of BIN2.

SMILES: O=C(O)CCC(=O)Nc1ccc(Br)cn1 [Bikinin]
- activation of BR pathway / hypocotyl growth (bri1-6 mutant seedling): promotion of long hypocotyls independent of BR

SMILES: CCOC(=O)CSc1ncnc2c1cnn2-c1ccccc1 [F1874-0108]
- plant height, chemical treated plants taller than untreated plants (Arabidopsis seedlings): ~100%
- seedling length versus BZ treated only ([1]; BZ treated, no exogenous brassinolide added): substantially longer

SMILES: CC(O)(c1ccccc1)C(Cc1ccc(Cl)cc1)n1cncn1 (centres unmarked) [brassinazole]
- hypocotyl length ([1]; FIG. 3, BZ alone): shortening of the hypocotyls

SMILES: CC(C)[C@H](C)[C@@H](O)[C@H](O)[C@@H](C)[C@H]1CC[C@H]2[C@@H]3COC(=O)[C@H]4C[C@H](O)[C@H](O)C[C@]4(C)[C@H]3CC[C@]12C [brassinolide]
- increase in length of BZ seedlings ([1]; BZ treated, exogenous brassinolide added back): ~400%
